Laboratory results published in patent publication US4537729A, “Dimethylphosphoramidates” (Development of Finance Corporation of New Zealand, priority 1981, dated 1985).
Where two headings read alike, the source gives them in different places.

Key:
[1] = tested on: L1210 tumour cells; assay: L1210 murine leukaemia cell culture, growth inhibition over 70 hours; format: cell-based; conditions: Mus musculus
[2] = tested on: P388 leukaemia; assay: P388 leukaemia in vivo test in mice (i.p.); set-up: species or system mouse; conditions: for ILS (percentage increase in life span): at optimal dose (OD), days 1, 5 and 9, P388 i.p., controls survive 11 days, >20% significant; for Active: at the stated dose, P388 in vivo
Source text: The P388 mouse leukaemia system has been shown by studies at the National Cancer Institute, U.S.A., to be a useful system for detecting agents with antitumour activity against clinical cancer (A. Goldin, J. M. Venditti, J. S. MacDonald, F. M. Muggia, J. E. Henney and V. T. De Vita, Europ.J.Cancer 17, 129-142 (1981).
Tumour P388 i.p.--P388 cells were obtained as frozen stocks from Mason Research Inc., U.S.A., and passaged introperitoneally according to standard methods (Cancer Chemother.Rep. 3, Part 3, page 9 (1972) in DBA-2 mice of either sex. Groups of six Fl hybrid mice (DBA-2 male x C57 Bl female, g weight 20±1 g) were injected intraperitoneally with 10^6 cells on day 0.
O.D.=optimal drug dose (in milligrams per kilogram), administered as a solution in 0.1 ml of 30% v/v ethyl alcohol in water on days 1, 5 and 9 after tumour inoculation. The drug is administered as a soluble acid addition salt.
ILS=percentage increase in life span of treated animals over that of groups of control animals injected with tumour alone. The average survival of control mice was 11 days. Values of ILS greater than 20% are considered statistically significant.
"Y. implies a significant value of drug activity at the stated dose.".

[3] = Reversed-phase partition chromatography (Rm); format: physicochemical; conditions: lipophilic-hydrophilic balance, linearly related to 1-octanol/water partition coefficients
Source text: Rm=a measure of the compound's lipophilic-hydrophilic balance from reversed-phase partition chromatography. Rm is linearly related to partition coefficients obtained in the 1-octanol/water system.

[4] = tested on: aerobacter aerogenes; assay: Antibacterial activity; format: cell-based
[5] = tested on: alcaligenes viscolactis; assay: Antibacterial activity; format: cell-based
[6] = tested on: eschereichia coli; assay: Antibacterial activity; format: cell-based
[7] = tested on: bacillus subtilis; assay: Antibacterial activity; format: cell-based
[8] = tested on: sarcina lutea; assay: Antibacterial activity; format: cell-based
[9] = tested on: micrococcus lysodeikticus; assay: Antibacterial activity; format: cell-based
[10] = tested on: neisseria catarrhalis; assay: Antibacterial activity; format: cell-based
[11] = tested on: staphylococcus aureus; assay: Antibacterial activity; format: cell-based
[12] = tested on: xanthomonas phaseoli; assay: Antibacterial activity; format: cell-based
[13] = tested on: streptococcus faecalis; assay: Antibacterial activity; format: cell-based
[14] = tested on: tumour; conditions: literature; cited from earlier work

In the case of `COP(=O)(Nc1ccc(Nc2c3ccccc3nc3ccccc23)cc1)OC` [Compound 1], the IC50 ([1]; L1210, 70 h, read-out: ID50) is reported as 0.015 µM, the “ILS (percentage increase in life span)” value [2] is reported as 74% and the Active [2] is reported as “Y”. The chromatographic logP [3] was 0.31, the antibacterial activity [4] was “active” and the antibacterial activity [5] was “active”. The antibacterial activity [6] was “active”, the antibacterial activity [7] was “active” and the antibacterial activity [8] was “active”. The antibacterial activity [9] was “active”, the antibacterial activity [10] was “active” and the antibacterial activity [11] was “active”. The antibacterial activity [12] was “active” and the antibacterial activity [13] was “active”.

In the case of `COc1cc(NP(=O)(OC)OC)ccc1Nc1c2ccccc2nc2ccccc12` [Compound 2], the IC50 ([1]; L1210, 70 h, read-out: ID50) is reported as 0.07 µM, the “ILS (percentage increase in life span)” value [2] is reported as 67% and the Active [2] is reported as “Y”. It also gave a chromatographic logP [3] of 0.47.

For `COP(=O)(Nc1ccc(Nc2c3ccccc3nc3cc(C)ccc23)cc1)OC` [Compound 3], the IC50 ([1]; L1210, 70 h, read-out: ID50) was 0.0068 µM, the “ILS (percentage increase in life span)” value [2] was 80% and the Active [2] was “Y”. The chromatographic logP [3] was 0.49.

In the case of `COP(=O)(Nc1ccc(Nc2c3ccccc3nc3cc(Cl)ccc23)cc1)OC` [Compound 4], the IC50 ([1]; L1210, 70 h, read-out: ID50) is reported as 0.016 µM, the “ILS (percentage increase in life span)” value [2] is reported as 54% and the Active [2] is reported as “Y”. For the same compound, the chromatographic logP [3] was 0.46.

For `COc1cc(NP(=O)(OC)OC)ccc1Nc1c2ccccc2nc2cc(Cl)ccc12` [Compound 5], the IC50 ([1]; L1210, 70 h, read-out: ID50) was 0.012 µM, the “ILS (percentage increase in life span)” value [2] was 78% and the Active [2] was “Y”. The chromatographic logP [3] was 0.61.

In the case of `COP(=O)(Nc1ccc(Nc2c3ccccc3nc3cc(Br)ccc23)cc1)OC` [Compound 6], the IC50 ([1]; L1210, 70 h, read-out: ID50) is reported as 0.015 µM, the “ILS (percentage increase in life span)” value [2] is reported as 76% and the Active [2] is reported as “Y”. It also gave a chromatographic logP [3] of 0.47.

With `COc1cc(NP(=O)(OC)OC)ccc1Nc1c2ccccc2nc2cc(Br)ccc12` [Compound 7] the IC50 ([1]; L1210, 70 h, read-out: ID50) was 0.0049 µM, the “ILS (percentage increase in life span)” value [2] was 83% and the Active [2] was “Y”. For the same compound, the chromatographic logP [3] was 0.57.

For `COP(=O)(Nc1ccc(Nc2c3ccccc3nc3cc([N+](=O)[O-])ccc23)cc1)OC` [Compound 8], the IC50 ([1]; L1210, 70 h, read-out: ID50) was 0.074 µM, the “ILS (percentage increase in life span)” value [2] was 22% and the Active [2] was “Y”. For the same compound, the chromatographic logP [3] was 0.14.

In the case of `COc1cccc2c(Nc3ccc(NP(=O)(OC)OC)cc3)c3ccccc3nc12` [Compound 9], the IC50 ([1]; L1210, 70 h, read-out: ID50) is reported as 0.02 µM, the “ILS (percentage increase in life span)” value [2] is reported as 44% and the Active [2] is reported as “Y”. For the same compound, the chromatographic logP [3] was 0.33.

With `COc1cc(NP(=O)(OC)OC)ccc1Nc1c2ccccc2nc2c(OC)cccc12` [Compound 10] the IC50 ([1]; L1210, 70 h, read-out: ID50) was 0.012 µM, the “ILS (percentage increase in life span)” value [2] was 76% and the Active [2] was “Y”. It also gave a chromatographic logP [3] of 0.47.

For `CNC(=O)c1cccc2c(Nc3ccc(NP(=O)(OC)OC)cc3)c3ccccc3nc12` [Compound 11], the IC50 ([1]; L1210, 70 h, read-out: ID50) was 0.097 µM, the “ILS (percentage increase in life span)” value [2] was 38% and the Active [2] was “Y”. For the same compound, the chromatographic logP [3] was 0.18.

For `CNC(=O)c1cccc2c(Nc3ccc(NP(=O)(OC)OC)cc3OC)c3ccccc3nc12` [Compound 12], the IC50 ([1]; L1210, 70 h, read-out: ID50) was 0.018 µM, the “ILS (percentage increase in life span)” value [2] was 118% and the Active [2] was “Y”. The chromatographic logP [3] was 0.28.

For `COP(=O)(Nc1ccc(Nc2c3ccccc3nc3c(C)cccc23)cc1)OC` [Compound 13], the IC50 ([1]; L1210, 70 h, read-out: ID50) was 0.0089 µM, the “ILS (percentage increase in life span)” value [2] was 111% and the Active [2] was “Y”. The chromatographic logP [3] was 0.46.

For `COc1cc(NP(=O)(OC)OC)ccc1Nc1c2ccccc2nc2c(C)cccc12` [Compound 14], the IC50 ([1]; L1210, 70 h, read-out: ID50) was 0.018 µM, the “ILS (percentage increase in life span)” value [2] was 106% and the Active [2] was “Y”. The chromatographic logP [3] was 0.44.

With `CNC(=O)c1cccc2c(Nc3ccc(NP(=O)(OC)OC)cc3OC)c3ccc(Cl)cc3nc12` [Compound 15] the IC50 ([1]; L1210, 70 h, read-out: ID50) was 0.05 µM, the “ILS (percentage increase in life span)” value [2] was 79% and the Active [2] was “Y”. It also gave a chromatographic logP [3] of 0.54.

For `COP(=O)(Nc1ccc(Nc2c3cccc(C)c3nc3c(C)cccc23)cc1)OC` [Compound 16], the IC50 ([1]; L1210, 70 h, read-out: ID50) was 0.017 µM, the “ILS (percentage increase in life span)” value [2] was 109% and the Active [2] was “Y”. For the same compound, the chromatographic logP [3] was 0.37.

In the case of `CS(=O)(=O)Nc1ccc(Nc2c3ccccc3nc3ccccc23)cc1` [Compound 17, 4'-(9-acridinylamino)methanesulphonanilide, reference compound], the IC50 ([1]; murine L1210 leukaemia cells, 70 hours, counted cell number reduced by 50%, read-out: ID50 (the source's name)) is reported as 0.035 µM, the “ILS (percentage increase in life span)” value [2] is reported as 93% and the Active [2] is reported as “Y”. The “antitumour effect (earlier work)” value [14] was “marked antitumour effect”.

For `COc1cc(NS(C)(=O)=O)ccc1Nc1c2ccccc2nc2ccccc12` [Compound 18, 4'-(9-acridinylamino)methanesulphon-m-anisidide, reference compound], the “ILS (percentage increase in life span)” value [2] was 78% and the Active [2] was “Y”.
